Values quoted from earlier work as cited in patent US11419848B2, “Combination of unsaponifiable lipids combined with polyphenols and/or catechins for the protection, treatment and repair of cartilage in joints of humans and animals” (NUTRAMAX LABORATORIES, INC., priority 2004, dated 2022).

Experiments:
[1] = test system: IL-1 induced expression of nitric oxide synthase and nitric oxide production
[2] = identified in ethanolic extract of cactus
[3] = test system: chronic inflammation model; settings: administered topically and in a chronic inflammation model, mouse
carrageenan paw oedema = settings: rats, extracts of Verbena officinalis

| Structure (SMILES) | IL-1 induced expression of nitric oxide synthase and nitric oxide production [1] | activation of nuclear factor-kB [1] | anti-inflammatory activity [2] | anti-inflammatory activity [3] | anti-inflammatory activity (carrageenan paw oedema) |
| --- | --- | --- | --- | --- | --- |
| O=C(O[C@@H]1Cc2c(O)cc(O)cc2O[C@@H]1c1cc(O)c(O)c(O)c1)c1cc(O)c(O)c(O)c1 [EGCG, epigallocatechin gallate] | inhibits | suppresses |  |  |  |
| CC[C@H](CC[C@@H](C)[C@H]1CC[C@H]2[C@@H]3CC=C4C[C@@H](O)CC[C@]4(C)[C@H]3CC[C@]12C)C(C)C [beta sitosterol] |  |  | anti-inflammatory activity | potent anti-inflammatory agents | one of the potent anti-inflammatory agents |
| CC[C@H](/C=C/[C@@H](C)[C@H]1CC[C@H]2[C@@H]3CC=C4C[C@@H](O)CC[C@]4(C)[C@H]3CC[C@]12C)C(C)C [stigmasterol] |  |  |  | potent anti-inflammatory agents |  |
